Laboratory results reported in ChEMBL document CHEMBL2331400, “Structure-based design and evaluation of naphthalene diimide G-quadruplex ligands as telomere targeting agents in pancreatic cancer cells” (J Med Chem, 2013).
Calls of active or inactive are those of the source. The calls are words filed in the database; no cut-off is given here.

Columns and labels:
unidentified [1] = test: Stabilization of HSP90a promoter sequence 5'-FAM-d(GGGCCAAAGGGAAGGGGTGGG)-TAMRA-3' (unknown origin) assessed as melting temperature at 1 uM by FRET assay
Homo sapiens = species: Homo sapiens; test: Stabilization of human telomeric G-quadruplex DNA sequence 5'-FAM-d(GGG[TTAGGG]3)-TAMRA-3' assessed as melting temperature at 1 uM by FRET assay
[2] = Cytotoxicity against human RCC4 cells assessed as growth inhibition after 96 hrs by SRB assay; assay type: functional, cell-based; conditions: RCC4, 96 h
unidentified [3] = test: Stabilization of HSP90b promoter sequence 5'-FAM-d(GGGCGGGCCAAAGGGAAGGGG)-TAMRA-3' (unknown origin) assessed as melting temperature at 1 uM by FRET assay
MCF7 = test: Cytotoxicity against human MCF7 cells assessed as growth inhibition after 96 hrs by SRB assay; assay type: functional, cell-based; conditions: MCF7, 96 h
MIA PaCa-2 [4] = test: Inhibition of telomerase activity in human MIAPaCa2 cells assessed as telomere elongation up to 10 uM after 7 days by TRAP-LIG assay; assay type: cell-based
A549 = test: Cytotoxicity against human A549 cells assessed as growth inhibition after 96 hrs by SRB assay; assay type: functional, cell-based; conditions: A549, 96 h
unidentified [5] = test: Stabilization of duplex DNA T-loop (unknown origin) 5'-FAM-dTATAGCTATA-HEG-TATAGCTATA-TAMRA-3' assessed as melting temperature at 1 uM by FRET assay
WI-38 = test: Cytotoxicity against human WI38 cells assessed as growth inhibition after 96 hrs by SRB assay; assay type: cell-based; conditions: WI-38, 96 h
MIA PaCa-2 [6] = test: Cytotoxicity against human MIAPaCa2 cells assessed as growth inhibition after 96 hrs by SRB assay; assay type: functional, cell-based; conditions: MIA PaCa-2, 96 h
MIA PaCa-2 [7] = test: Induction of senescence in human MIAPaCa2 cells at 3.3 to 6.6 nM after 7 days by beta-galactosidase assay relative to vehicle-treated control; assay type: functional
786-0 = test: Cytotoxicity against human 786-0 cells assessed as growth inhibition after 96 hrs by SRB assay; assay type: functional, cell-based; conditions: 786-0, 96 h
MIA PaCa-2 [8] = test: Inhibition of telomerase activity in human MIAPaCa2 cells assessed as telomere elongation at 25 to 50 nM by TRAP-LIG assay; assay type: cell-based
MIA PaCa-2 [9] = test: Induction of senescence in human MIAPaCa2 cells at 25 to 50 nM after 7 days by beta-galactosidase assay relative to vehicle-treated control; assay type: functional, cell-based
[10] = Selectivity ratio of IC50 for human WI-38 cells to IC50 for human 786-0 cells; assay type: ADME, cell-based; conditions: WI-38 cells versus 786-0 cells, read-out: Ratio IC50

| SMILES | ΔTm (unidentified [1]) | ΔTm (Homo sapiens) | IC50 [2] | ΔTm (unidentified [3]) | IC50 (MCF7) | inhibition (MIA PaCa-2 [4]) | IC50 (A549) | ΔTm (unidentified [5]) | IC50 (WI-38) | IC50 (MIA PaCa-2 [6]) | Activity (MIA PaCa-2 [7]) | IC50 (786-0) | inhibition (MIA PaCa-2 [8]) | Activity (MIA PaCa-2 [9]) | selectivity ratio [10] |
| --- | --- | --- | --- | --- | --- | --- | --- | --- | --- | --- | --- | --- | --- | --- | --- |
| CN1CCN(CCNc2cc3c4c(c(NCCN5CCN(C)CC5)cc5c4c2C(=O)N(CCCN2CCOCC2)C5=O)C(=O)N(CCCN2CCOCC2)C3=O)CC1 | 31.9 °C | 27.8 °C | 280 nM | 31.1 °C | 30 nM | inactive | < 10 nM | 8.1 °C | 2460 nM | 10 nM |  |  |  |  |  |
| CN1CCN(CCCNc2cc3c4c(c(NCCCN5CCN(C)CC5)cc5c4c2C(=O)N(Cc2ccco2)C5=O)C(=O)N(Cc2ccco2)C3=O)CC1 | 0.9 °C | 0.2 °C | 3110 nM | 1.1 °C | 2610 nM |  | 2410 nM | 0.3 °C | 6840 nM | 2830 nM | 50% | 1100 nM |  |  |  |
| CN1CCN(CCCNc2cc3c4c(c(NCCCN5CCN(C)CC5)cc5c4c2C(=O)N(CCCN2CCN(C)CC2)C5=O)C(=O)N(CCCN2CCN(C)CC2)C3=O)CC1 | 36.3 °C | 28.3 °C |  | 32 °C |  |  |  | 1.3 °C | 9000 nM |  |  |  | inactive | Active |  |
| CN1CCN(CCCNc2cc3c4c(c(NCCCN5CCN(C)CC5)cc5c4c2C(=O)N(CC2CCOCC2)C5=O)C(=O)N(CC2CCOCC2)C3=O)CC1 | 0.7 °C | 0.1 °C | 8380 nM | 0.8 °C | 3120 nM |  | 2920 nM | 0.2 °C | 12600 nM | 2500 nM |  | 1200 nM |  |  | 10 |
| CN1CCN(CCCNc2cc3c4c(c(NCCCN5CCN(C)CC5)cc5c4c2C(=O)N(CCN2CCOCC2)C5=O)C(=O)N(CCN2CCOCC2)C3=O)CC1 | 33.9 °C | 27 °C | 1750 nM | 29.1 °C | 170 nM |  | 1550 nM | 0.8 °C | 610 nM | 40 nM |  | 630 nM |  |  |  |
| COCCCN1C(=O)c2cc(NCCCN3CCN(C)CC3)c3c4c(cc(NCCCN5CCN(C)CC5)c(c24)C1=O)C(=O)N(CCCOC)C3=O | 29 °C | 0.5 °C | 10500 nM | 23.8 °C | 5620 nM | inactive | 2540 nM | 0 °C | 3320 nM | 2790 nM |  | 7170 nM |  |  |  |
| CN1CCN(CCCNc2cc3c4c(c(NCCCN5CCN(C)CC5)cc5c4c2C(=O)N(CC2CCCO2)C5=O)C(=O)N(CC2CCCO2)C3=O)CC1 (racemic) | 27.1 °C | 22.7 °C | > 10000 nM | 21 °C | > 10000 nM | inactive | 5570 nM | 0.2 °C | > 10000 nM | 5650 nM |  | > 10000 nM |  |  |  |
| CN1CCN(CCNc2cc3c4c(c(NCCN5CCN(C)CC5)cc5c4c2C(=O)N(CCN2CCOCC2)C5=O)C(=O)N(CCN2CCOCC2)C3=O)CC1 | 30.6 °C | 24.7 °C | 5100 nM | 27.6 °C | 180 nM |  | 4930 nM | 1.7 °C | 1170 nM |  |  | 1480 nM |  |  |  |
